“Also recorded” adds a separate entry of the source.
Molecular target: T1, GalNAc-T4 (Homo sapiens, UniProt Q8N4A0)
T1 construct: amino acid residues 36–578 of the human GalNAc-T4; histidine tag (C); made in house; host or cells: Pichia pastoris SMD1168 (pPICZαA, secreted)
Experiment: Surface plasmon resonance
Assay type: binding
Settings: SPR; peptide 0.01–5 mM; 25 °C, pH 7.5, 100 µM UDP, 4 mM MnCl2; in words
Experimental: SPR experiments were performed at 25 °C with a Biacore X-100 apparatus (Biacore AB) in 25 mM Tris buffer, 1 mM DTT, 4 mM MnCl2, 100 µM UDP, 0.01% surfactant P20, pH 7.5 (running buffer) at 25 °C. Flow cells (CM5 sensor chip; Biacore) were activated for 7 min by injecting 140 µl of 50 mM N-hydroxysuccinimide (NHS): 200 mM ethyl-3(3dimethylamino) propylcarbodiimide (EDC). GalNAc-T4 was immobilized on a flow cell 2 by injection of a 100 µg/ml protein solution diluted with 10 mM sodium acetate buffer with a flow rate of 10 µl/min for 7 min followed by an injection of 130 µl ethanolamine to block any remaining activated groups on the surface. The level of immobilization reached was about 8000 RU. Flow cell 1, used as reference, was blocked with ethanolamine at the same conditions of flow cell 2 without immobilization of protein. Affinity experiments were made using a series of different concentrations of peptide 3 in the range of 0.01–5 mM with a flow rate of 30 µl/min during 100 s. Each injection was followed by a 100 s injection of running buffer (dissociation phase). No regeneration steps were performed between injections. Response data were collected at real time and analyzed with the Biacore® X-100 Evaluation software and plotted as response shift versus analyte concentration.

T1 sequence (Q8N4A0 36-578): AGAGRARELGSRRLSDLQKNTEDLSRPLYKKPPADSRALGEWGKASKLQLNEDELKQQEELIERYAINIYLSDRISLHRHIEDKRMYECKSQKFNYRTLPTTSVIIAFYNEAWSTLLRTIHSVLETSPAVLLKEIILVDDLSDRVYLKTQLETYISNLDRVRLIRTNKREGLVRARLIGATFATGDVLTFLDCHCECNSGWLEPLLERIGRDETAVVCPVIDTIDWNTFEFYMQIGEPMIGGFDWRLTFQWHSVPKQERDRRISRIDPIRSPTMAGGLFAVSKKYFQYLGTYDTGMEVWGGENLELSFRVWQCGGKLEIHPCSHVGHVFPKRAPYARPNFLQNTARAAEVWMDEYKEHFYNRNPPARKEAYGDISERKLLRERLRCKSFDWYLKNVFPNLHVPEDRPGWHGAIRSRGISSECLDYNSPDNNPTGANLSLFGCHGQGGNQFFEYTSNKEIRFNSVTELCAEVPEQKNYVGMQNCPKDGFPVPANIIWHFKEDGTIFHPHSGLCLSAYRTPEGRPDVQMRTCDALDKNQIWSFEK

GAT*GAGAGAGTTPGPG [Peptide 3, monoglycopeptide GAT*…, T* denotes the Thr-O-GalNAc moiety]
Kd determinability / binding saturation: binding saturation could not be achieved; also recorded: binding saturation was not achieved
